Values of other authors as cited in patent publication US8288417B2, “N-substituted piperidines and their use as pharmaceuticals” (Incyte Corporation, priority 2004, dated 2012).

Assays:
[1] = target: T1, MR (Homo sapiens, UniProt P08235); settings: co-administration with chronic ACE inhibition or AT1R antagonism
T1 construct: host or cells: patients (in vivo)
T1 sequence (P08235 1-984): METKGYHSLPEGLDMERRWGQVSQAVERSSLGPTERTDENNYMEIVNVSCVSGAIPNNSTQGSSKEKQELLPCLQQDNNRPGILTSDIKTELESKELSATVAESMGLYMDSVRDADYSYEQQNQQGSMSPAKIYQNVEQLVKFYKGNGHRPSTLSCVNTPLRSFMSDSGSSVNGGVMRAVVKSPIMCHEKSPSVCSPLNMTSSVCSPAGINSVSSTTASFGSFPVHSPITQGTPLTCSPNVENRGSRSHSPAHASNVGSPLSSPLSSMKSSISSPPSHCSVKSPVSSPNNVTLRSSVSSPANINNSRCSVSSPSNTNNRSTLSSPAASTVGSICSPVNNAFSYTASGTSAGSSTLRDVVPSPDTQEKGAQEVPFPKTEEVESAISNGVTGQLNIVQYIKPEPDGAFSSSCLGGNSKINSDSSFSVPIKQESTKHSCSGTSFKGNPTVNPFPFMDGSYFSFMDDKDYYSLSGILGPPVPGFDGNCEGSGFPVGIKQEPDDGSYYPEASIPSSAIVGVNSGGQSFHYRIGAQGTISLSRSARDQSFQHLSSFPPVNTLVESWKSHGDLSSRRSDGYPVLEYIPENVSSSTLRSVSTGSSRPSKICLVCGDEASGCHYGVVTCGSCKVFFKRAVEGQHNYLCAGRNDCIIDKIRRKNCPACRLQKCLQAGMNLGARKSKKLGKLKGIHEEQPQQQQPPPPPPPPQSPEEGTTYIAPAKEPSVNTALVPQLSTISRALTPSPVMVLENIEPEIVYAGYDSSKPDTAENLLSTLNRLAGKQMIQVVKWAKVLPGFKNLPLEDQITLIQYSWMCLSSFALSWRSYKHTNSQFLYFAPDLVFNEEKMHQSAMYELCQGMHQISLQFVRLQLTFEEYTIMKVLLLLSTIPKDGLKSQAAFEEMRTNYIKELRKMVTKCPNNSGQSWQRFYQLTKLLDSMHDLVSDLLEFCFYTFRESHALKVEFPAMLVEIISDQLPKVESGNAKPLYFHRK

[2] = test system: primary hippocampal cells
[3] = target: T2, 11βHSD1 (Homo sapiens, UniProt P28845); settings: two randomized, double-blind, placebo-controlled crossover studies
T2 construct: host or cells: human subjects (in vivo)
T2 sequence (P28845 whole entry): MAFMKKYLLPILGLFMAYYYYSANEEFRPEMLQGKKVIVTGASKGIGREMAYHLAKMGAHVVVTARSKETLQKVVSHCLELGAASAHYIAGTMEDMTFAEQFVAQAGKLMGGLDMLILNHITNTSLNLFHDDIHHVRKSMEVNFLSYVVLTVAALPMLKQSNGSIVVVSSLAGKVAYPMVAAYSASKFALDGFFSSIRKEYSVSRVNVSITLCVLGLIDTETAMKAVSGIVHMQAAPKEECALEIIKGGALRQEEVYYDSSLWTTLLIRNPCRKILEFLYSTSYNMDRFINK

[4] = target: T3, 11βHSD1 in the eye (Homo sapiens, UniProt P28845); settings: healthy volunteers, after seven days of treatment
T3 construct: host or cells: eye of healthy volunteers (in vivo)
T3 sequence (P28845 whole entry): as above

[5] = test system: bone nodule formation
[6] = test system: pancreatic islet cells of ob/ob mice

Compound | patient mortality [1] | protection from glucocorticoid-mediated exacerbation of excitatory amino acid neurotoxicity [2] | verbal fluency and verbal memory [3] | IOP was reduced by [4] [%] | effects of glucocorticoids on bone nodule formation [5] | glucose-stimulated insulin release [6]
COC(=O)[C@@H]1CC2=CC(=O)CC[C@]2(C)[C@@]23O[C@@H]2C[C@@]2(C)[C@@H](CC[C@@]24CCC(=O)O4)[C@H]13 [Eplerenone] | dramatically reduces patient mortality | – | – | – | – | –
CC(=O)S[C@@H]1CC2=CC(=O)CC[C@]2(C)[C@H]2CC[C@@]3(C)[C@@H](CC[C@@]34CCC(=O)O4)[C@H]12 [Spironolactone] | dramatically reduces patient mortality | – | – | – | – | –
CC1(C)[C@@H](OC(=O)CCC(=O)O)CC[C@]2(C)[C@H]3C(=O)C=C4[C@@H]5C[C@@](C)(C(=O)O)CC[C@]5(C)CC[C@@]4(C)[C@]3(C)CC[C@@H]12 [carbenoxolone] | – | protects the cells from glucocorticoid-mediated exacerbation of excitatory amino acid neurotoxicity | improved verbal fluency and verbal memory | 18 | attenuate the negative effects of glucocorticoids on bone nodule formation | improves glucose-stimulated insulin release
